Test results from paper PMC9138090, “Study on the Neuroprotective, Radical-Scavenging and MAO-B Inhibiting Properties of New Benzimidazole Arylhydrazones as Potential Multi-Target Drugs for the Treatment of Parkinson’s Disease” (Antioxidants, 2022).
“Also recorded” adds a separate entry of the source.

Columns and labels:
rat brain synaptosomes [1] = test: Synaptosomal viability (MTT), toxicity evaluation; assay type: cell-based; details: concentrations < 250 µM (1 to 250 µM tested)
Protocol: (§1) Synaptosomes were prepared from brains of adult male Wistar rats. The brains were homogenized in 10 volume of cold buffer 1, containing 5 mM HEPES and 0.32 M sucrose (pH = 7.4). The brain homogenate was centrifuged twice at 1000× g for 5 min at 4 °C. The supernatant was collected and centrifuged 3 times at 10,000× g for 20 min at 4 °C. The pellet was re-suspended in ice-cold buffer 1. The synaptosomes were isolated by using Percoll reagent to prepare the gradient. Synaptosomes were re-suspended and incubated in buffer 2, containing 290 mM NaCl, 0.95 mM MgCl2 × 6H2O, 10 mM KCl, 2.4 mM CaCl2 × H2O, 2.1 mM NaH2PO4, 44 mM HEPES, and 13 mM D-glucose. Incubations were performed in a 5% CO2 + 95% O2 atmosphere. The content of synaptosomal protein was determined according to the method of Lowry et al. using bovine serum albumin as a standard.
Synaptosomal viability was measured by (3-(4,5)-dimethylthiazol-2-yl)-2,5-diphenyl tetrazolium bromide)-test, described by Mungarro-Menchaca et al. The synaptosomes were incubated with the compounds and then treated with (3-(4,5)-dimethylthiazol-2-yl)-2,5-diphenyl tetrazolium bromide) solution (0.5 mg/mL) for 1 h at 37 °C. After incubation they were centrifuged at 15,000× g for 1 min. The formed formazan crystals were dissolved in DMSO (Dimethyl sulfoxide). The extinction was measured spectrophotometrically at λ = 580 nm.
The low toxicity and substantial neuroprotective properties shown by some of the potential drug candidates in human neuroblastoma SH-SY5Y cells directed the experimental work to be elaborated on a different cellular in vitro model using freshly isolated rat brain synaptosomes for the evaluation of the protective effects and toxicity of selected promising compounds [56]. The rat brain synaptosomes represent a terminal part of the axons and contain synaptic vesicles, mitochondria, lysosomes, parts of the cell membrane, neurotransmitters, which diffuse across the synaptic cleft. Besides the presynaptic membrane, a part of postsynaptic membrane with the postsynaptic density is often attached to the nerve ending. In their experiments, Student and Edwards examined the subcellular localization of the A and B forms of MAO in rat brain. […] The authors conclude from the data that MAO-B activity is, indeed, associated with synaptosomes and may be non-uniformly located among different populations of synaptic endings. The functional-metabolic status of the synaptosomes was evaluated by measuring the synaptosomal viability (MTT assay) and the levels of reduced gluthathione (GSH) (Figure 2). […] At the highest used concentration (250 µM) a relative decrease in the synaptosomal viability and the levels of reduced glutathione was observed.

SH-SY5Y cells = test: H2O2-induced oxidative stress model in SH-SY5Y cells; assay type: cell-based, human; details: for cell viability protection vs. H2O2-treatment: 50 µM, 90 min pre-incubation, H2O2 1 mM 15 min; for protective effect in H2O2-induced oxidative stress model (in words): 1, 10, 50 µM
Protocol: SH-SY5Y cells were seeded in 96-well plates at a density of 3.5 × 10^4/well and allowed to attach at the wells’ bottom overnight. […] Afterwards, the SH-SY5Y cells were washed with phosphate-buffered saline (PBS) to remove the extracellular amount of the test compounds. […] Then, the contents of all wells were changed with culture medium. After 24 h, the amount of attached viable cells was evaluated by MTT assay. […] Rasagiline and melatonin (Sigma-Aldrich Chemie GmbH) were used as reference compounds because of their well-established neuroprotective activity. […] The toxic mechanisms of hydrogen peroxide include the generation of reactive hydroxyl radicals and formation of products which could damage cellular lipids, proteins and DNA. […] For comparison, the effects of two compounds with well established antioxidant activity—rasagiline and melatonin—were also evaluated.

rat brain synaptosomes [2] = test: GSH level in isolated synaptosomes, toxicity evaluation; assay type: cell-based; details: concentrations < 250 µM (1 to 250 µM tested)
Protocol: as §1
Following treatment with the tested compounds, the glutathione levels were determined using Ellman reagent (DTNB), which forms color complexes with the SH group at pH = 8, with maximum absorbance at 412 nm. The synaptosomes were centrifuged at 500× g for 1 min and the sediment was used to measure GSH level. The sediment was precipitated with 5% TCA, then centrifuged for 10 min at 4000× g and the GSH level in the supernatant was measured using DTNB spectrophotometrically at 412 nm. The biochemical parameters were determined by spectrophotometric methods using a Spectro UV-VIS Split spectrophotometer (LaboMed.Inc, Los Angeles, CA, USA).
The low toxicity and substantial neuroprotective properties shown by some of the potential drug candidates in human neuroblastoma SH-SY5Y cells directed the experimental work to be elaborated on a different cellular in vitro model using freshly isolated rat brain synaptosomes for the evaluation of the protective effects and toxicity of selected promising compounds [56]. The rat brain synaptosomes represent a terminal part of the axons and contain synaptic vesicles, mitochondria, lysosomes, parts of the cell membrane, neurotransmitters, which diffuse across the synaptic cleft. Besides the presynaptic membrane, a part of postsynaptic membrane with the postsynaptic density is often attached to the nerve ending. In their experiments, Student and Edwards examined the subcellular localization of the A and B forms of MAO in rat brain. […] The authors conclude from the data that MAO-B activity is, indeed, associated with synaptosomes and may be non-uniformly located among different populations of synaptic endings. The functional-metabolic status of the synaptosomes was evaluated by measuring the synaptosomal viability (MTT assay) and the levels of reduced gluthathione (GSH) (Figure 2). […]

[3] = Fe(II)-induced oxidative damage of lecithin (TBA-RS); details: 90 µmol/L
Protocol: The classical method of determining the TBA-reactive substances at 532 nm as described by Asakawa and Matsushita has been used. Two groups of measurement compositions named controls and samples were prepared in phosphate buffer (K2HPO4/KH2PO4, pH 7.4) for each of the used substrates. Both of them contained equivalent concentrations of lecithin (1 mg/mL) or 2-deoxyribose (0.5 mmol/L) and FeCl2 (0.1 mmol/L). In the controls, the tested hydrazones have been omitted and in the samples the effect of the newly designed compounds at the concentrations indicated below the figures has been determined. The obtained samples were incubated at 37 °C for 30 min. The reaction was stopped, and after adding 0.5 mL 2.8% trichloroacetic acid and 0.5 mL of thiobarbituric acid, the samples were heated in boiling water for 20 min. The lecithin containing samples were centrifuged at 3000 rpm for 20 min and the supernatant was aspired out. The results have been presented as a percentage of the control sample, treated only with ferrous iron where we expected maximum oxidative damage under the described conditions.

[4] = Superoxide scavenging, non-enzymatic KO2/NBT assay; details: 100 µM; text says enzymatic assay
Protocol: Superoxide radicals scavenging activity (non-enzymatic assay): 1 mL PBS, pH 7.4 contains 0.04 mmol/L NBT and the tested hydrazone in the concentrations indicated on the figures. No drug was added to the control samples. One minute after the addition of 20 μL of KO2 dissolved in DMSO, the absorbance at 560 nm was measured.
The results from both assays have been presented as a percentage of the control sample.
The potency of the compounds selected as the most promising from the cell model systems and hMAOB inhibitory studies was estimated against enzymatically (xanthine/XO system) and non-enzymatically (KO2/NBT) produced superoxide radicals (Figure 7). In the xanthine-xanthine oxidase system the generation of O2^−^● is a result of an enzymatic reaction. The molecular mechanism of action of the XO enzyme is associated with catalysation of the reaction of oxidation of hypoxanthine and xanthine and generation of uric acid. During the process of reoxidation of the enzyme, the molecular oxygen acts as an electron acceptor and the formation of physiologically important ROS, such as the superoxide radical (O2^−^●) and hydrogen peroxide (H2O2), has been observed. In the potassium superoxide-containing systems, superoxide radical generation is due to the direct addition of the KO2 to the water sample solution. […]

Row | Compound | effect on rat brain synaptosomes viability (rat brain synaptosomes [1]) | cell viability protection vs. H2O2-treatment (SH-SY5Y cells) [%] | protective effect in H2O2-induced oxidative stress model (in words) (SH-SY5Y cells) | melting point [°C] | effect on level of GSH in synaptosomes (rat brain synaptosomes [2]) | sample/control absorbance ratio (% of the control), lecithin peroxidation ([3]; lecithin 1 mg/mL, FeCl2 0.1 mmol/L) | increase of absorbance compared to the controls [4] [times] | lecithin peroxidation effect compared with 3a (in words) [3]
1 | O=C(CCn1c(=S)n(CCC(=O)NN=Cc2cccc(O)c2O)c2ccccc21)NN=Cc1cccc(O)c1O [3h, 3,3′-(2-Thioxo-1H-benzo[d]imidazole-1,3(2H)-diyl)bis(N′-(2,3-dihydroxybenzylidene)propanehydrazide)] | did not significantly reduce | 79 | even more pronounced than those of melatonin and rasagiline | 246 to 248 | did not significantly reduce; also recorded: did not change | around 40% |  | 
2 | O=C(CCn1c(=S)n(CCC(=O)NN=Cc2ccccc2O)c2ccccc21)NN=Cc1ccccc1O [3e, 3,3′-(2-Thioxo-1H-benzo[d]imidazole-1,3(2H)-diyl)bis(N′-(2-hydroxybenzylidene)propanehydrazide)] | did not significantly reduce |  |  | 272 to 273 | did not change |  | 1.5 | 
3 | O=C(CCn1c(=S)n(CCC(=O)NN=Cc2ccc(O)cc2O)c2ccccc21)NN=Cc1ccc(O)cc1O [3i, 3,3′-(2-Thioxo-1H-benzo[d]imidazole-1,3(2H)-diyl)bis(N′-(2,4-dihydroxybenzylidene)propanehydrazide)] | did not significantly reduce | 80 | even more pronounced than those of melatonin and rasagiline | 254 to 256 | did not significantly reduce; also recorded: did not change |  | 2.5 | statistically identical effect to 3a
4 | COc1ccc(C=NNC(=O)CCn2c(=S)n(CCC(=O)NN=Cc3ccc(OC)cc3O)c3ccccc32)c(O)c1 [3m, 3,3′-(2-Thioxo-1H-benzo[d]imidazole-1,3(2H)-diyl)bis(N′-(2-hydroxy-4-methoxybenzylidene)propanehydrazide)] | did not significantly reduce |  |  | 247 to 249 | did not change |  |  | 
